{"source": "patent US6838436B1", "about": "“Inhibitors of proteasomal activity for stimulating bone growth” (Osteoscreen Inc., priority 1998, dated 2005)", "key": {"calvaria": {"tested_on": "calvaria", "assay": "Calvarial assay of epoxomicin (Example 7), new bone area", "format": "cell-based, mouse", "experimental": "An assay for bone resorption or bone formation is similar to that described by Gowen M. & Mundy G., J Immunol (1986) 136:2478-82. Briefly, four days after birth, the front and parietal bones of ICR Swiss white mouse pups are removed by microdissection and split along the sagittal suture. In an assay for resorption, the bones are incubated in BGJb medium (Irvine Scientific, Santa Ana, Calif.) plus 0.02% (or lower concentration) β-methylcyclodextrin, wherein the medium also contains test or control substances. The medium used when the assay is conducted to assess bone formation is Fitton and Jackson Modified BGJ Medium (Sigma) supplemented with 6 μg/ml insulin, 6 μg/ml transferrin, 6 ng/ml selenous acid, calcium and phosphate concentrations of 1.25 and 3.0 mM, respectively, and ascorbic acid to a concentration of 100 μg/ml is added every two days. The incubation is conducted at 37° C. in a humidified atmosphere of 5% CO2 and 95% air for 96 hours.\nNew bone formation was determined (using a 10× objective) by measuring the new bone area formed in one field in 3 representative sections of each bone (4 bones per group). Each measurement was carried out ½ field distance from the end of the suture. Both total bone and old bone area were measured. Data were expressed as new bone area in μm^2."}, "calpain": {"tested_on": "calpain", "conditions": "cited from earlier work"}, "hair follicles": {"tested_on": "hair follicles", "assay": "Hair growth without depilation, shaved dorsal trunks (Example 15)", "format": "in vivo, C57 BL/6 mice", "conditions": "for growth of new hair at the site of drug application: sixteenth day", "experimental": "To confirm that the responses described above occurred in the absence of depilation and in other strains of mice, PS1 (0.5%) was applied topically once daily for 5 days to eight week old male C57 BL/6 mice in which the dorsal trunks were shaved but not depilated. For this experiment, the hair of 18 C57 BL/6 mice was carefully clipped the hair from the dorsal trunks. Three groups were tested. One group was treated with PS1 (0.5%) applied topically to the shaved area daily. In the second group, PS1 (1 mg/kg body weight/day) was injected locally into the subcutaneous tissue of the shaved area. These two groups were compared with the third group, which was untreated other than the hair on the dorsal trunk was similarly clipped. Blonde hair dye (extra strength bleach powder and 12% hydrogen peroxide in a 1 to 1 w/v ratio) was applied to the dorsal trunks of all mice on the seventh day in order to make it easier to detect new hair growth represented by appearance in the blonded areas of the natural black hair of the mice associated with induction of melanogenesis."}}, "note": "Marks after values point to notes of the source that are not given here. Where a SMILES comes first, the peptide text is derived from it. The star is where a group is joined. Cbz = O=C(OCc1ccccc1)*; OtBu = CC(C)(C)O*"}
{"smiles": "CC[C@H](C)[C@H](NC(=O)[C@H]([C@@H](C)CC)N(C)C(C)=O)C(=O)N[C@H](C(=O)N[C@@H](CC(C)C)C(=O)[C@@]1(C)CO1)[C@@H](C)O", "note": "[Epoxomicin]", "values": [{"measurement": "bone formed compared with control", "setting": "calvaria; concentrations of 5-10 nM", "value": "significantly more bone was formed than in the control"}, {"measurement": "New Bone Area", "setting": "calvaria; dose 0.000625 μM", "value": 2.78, "unit": "mm^2 × 10^−3"}, {"measurement": "New Bone Area", "setting": "calvaria; dose 0.00125 μM", "value": 2.80, "unit": "mm^2 × 10^−3"}, {"measurement": "New Bone Area", "setting": "calvaria; dose 0.0025 μM", "value": 4.04, "unit": "mm^2 × 10^−3"}, {"measurement": "New Bone Area", "setting": "calvaria; dose 0.005 μM", "value": "6.54# mm^2 × 10^−3"}, {"measurement": "New Bone Area", "setting": "calvaria; dose 0.01 μM", "value": "5.74# mm^2 × 10^−3"}, {"measurement": "concentration up to which no inhibition appears", "setting": "calpain", "value": "> 50", "unit": "µM"}]}
{"smiles": "CC[C@H](C)[C@H](NC(=O)OCc1ccccc1)C(=O)N[C@@H](CCC(=O)OC(C)(C)C)C(=O)N[C@@H](C)C(=O)N[C@H](C=O)CC(C)C", "note": "[PSI, N-carbobenzoyl-Ile-Glu-(OtBu)-Ala-Leu-CHO] (Cbz-IE(OtBu)AL-aldehyde)", "values": [{"measurement": "growth of new hair at the site of drug application", "setting": "hair follicles; 1 mg/kg body weight/day injected locally into the subcutaneous tissue", "value": "more rapid growth of new hair"}, {"measurement": "growth of new hair at the site of drug application", "setting": "hair follicles; 0.5% applied topically once daily for 5 days", "value": "more rapid growth of new hair"}, {"measurement": "diameter of the hair and of the inner and outer root sheath", "setting": "hair follicles; transverse sections of skin, only in the applied areas", "value": "increased both the diameter of the hair and the diameter of the inner and outer root sheath"}]}
